According to paper PMC6272992, “Synthesis and Cytotoxic Effect of Some Novel 1,2-Dihydropyridin-3-carbonitrile and Nicotinonitrile Derivatives” (Molecules, 2015):
Values after ≈ are worked out from the molar mass of the structure shown.

What was measured:
[1] = tested on: MCF-7 (breast adenocarcinoma); experiment: SRB cancer cell growth assay, MCF-7; type: cell-based, human; set-up: key to activity class MCF-7: highly active; b: moderately active; weakly active; details: for IC50: Homo sapiens, MCF7, MCF-7, 48 h exposure, SRB, read-out: IC50 (μg/mL) MCF-7
Description: (§1) The in vitro cytotoxic activity the newly synthesized compounds against human breast cell line (MCF7), non-small cell lung cancer NCI-H460, CNS cancer SF-268 and WI 38 (normal fibroblast cells) were evaluated using doxorubicin as the reference drug, according to the method reported by Skehan et al..
(§2) The newly synthesized compounds were evaluated in vitro against three human cancer cell lines; which are MCF-7 (breast adenocarcinoma), NCI-H460 (non-small cell lung cancer) and SF-268 (CNS cancer), and WI 38 (normal fibroblast cells) were used in this study. MCF-7 was obtained from the European Collection of Cell Cultures (ECACC, Salisbury, UK) but NCI-H460, SF-268 and WI 38 were kindly provided by the National Cancer Institute (NCI, Cairo, Egypt). They grow as monolayers routinely maintained in RPMI-1640 medium supplemented with 5% heat inactivated fetal bovine serum (FBS), 2 mM glutamine and antibiotics (penicillin 100 U/mL, streptomycin 100 µg/mL), at 37 °C in a humidified atmosphere containing 5% CO2. Exponentially growing cells were obtained by plating 1.5 × 10^5 cells/mL for MCF-7 and SF-268, and 0.75 × 10^4 cells/mL for NCI-H460 followed by 24 h of incubation. The effect of the vehicle solvent (DMSO) on the growth of these cell lines was evaluated in all experiments by exposing untreated control cells to the maximum concentration (0.5%) of DMSO used in each assay.
(§3) The effect of compounds on the in vitro growth of human tumor cell lines were evaluated according to the procedure adopted by the National Cancer Institute (NCI, […], USA) in the “In vitro Anticancer Drug Discovery Screen” that uses the protein-binding dye sulforhodamine B (SRB) to assess cell growth. In the assay protocol, all cells were incubated at 37 °C under humidified atmosphere containing 5% CO2. Briefly, exponentially cells growing in 96-well plates were then exposed for 48 h to five serial concentrations of each compound, starting from a maximum concentration of 150 μg/mL. Following this exposure period, adherent cells were fixed, washed and stained. The bound stain was solubilized and the absorbance was measured at 492 nm in a Power Wave XS plate reader (Bio-Tek Instruments Inc., Winston, NC, USA). For each test compound and cell line, a dose response curve was obtained and the inhibitory concentration of 50% (IC50), corresponding to the concentration of the compounds that inhibited 50% of the net cell growth was calculated as described elsewhere. Doxorubicin was used as a positive control and tested in the same manner.

[2] = tested on: NCI-H460 (non-small cell lung cancer); experiment: SRB cancer cell growth assay, NCI-H460; type: cell-based, human; set-up: key to activity class NCI-H460: highly active; b: moderately active; weakly active; details: for IC50: Homo sapiens, NCI-H460, 48 h exposure, SRB, read-out: IC50 (μg/mL) NCI-H460
Description: as §1, §2, §3

[3] = tested on: SF-268 (CNS cancer); experiment: SRB cancer cell growth assay, SF-268; type: cell-based, human; set-up: key to activity class SF-268: highly active; b: moderately active; weakly active; details: for IC50: Homo sapiens, SF-268, 48 h exposure, SRB, read-out: IC50 (μg/mL) SF-268
Description: as §1, §2, §3

[4] = tested on: WI 38 (normal fibroblast cells); experiment: SRB cell growth assay, normal cells WI 38; type: cell-based, human; details: 48 h exposure, non-cytotoxic = IC50 > 100 μg/mL; for IC50: Homo sapiens
Description: as §1, §2, §3

| Structure (SMILES) | melting point [°C] | IC50 [1] [µg/mL] | activity class MCF-7 [1] | IC50 [2] [µg/mL] | activity class NCI-H460 [2] | IC50 [3] [µg/mL] | activity class SF-268 [3] | IC50 [4] [µg/mL] | IC50 (μg/mL) WI 38 [4] |
| --- | --- | --- | --- | --- | --- | --- | --- | --- | --- |
| N#Cc1c(-c2ccc(F)cc2)cc(-c2ccc(Cl)cc2Cl)[nH]c1=O [Compound 2, 6-(2,4-Dichlorophenyl)-4-(4-fluorophenyl)-2-oxo-1,2-dihydropyridin-3-carbonitrile] | 276 to 277 | – | – | – | – | – | – | – | – |
| Nc1nnc2[nH]c(-c3ccc(Cl)cc3Cl)cc(-c3ccc(F)cc3)c1-2 [Compound 4, 6-(2,4-Dichlorophenyl)-4-(4-fluorophenyl)-7H-pyrazolo[3,4-b]pyridin-3-amine] | 309 to 311 | 67 ± 6.23 (≈ 180 µM) | c | 56.8 ± 8.2 (≈ 152 µM) | c | 69 ± 9.15 (≈ 185 µM) | c | 18.6 ± 1.21 (≈ 49.9 µM) | – |
| N#Cc1c(N)c2c(-c3ccc(F)cc3)cc(-c3ccc(Cl)cc3Cl)nc2[nH]c1=O [Compound 7, 4-Amino-7-(2,4-dichlorophenyl)-5-(4-fluorophenyl)-2-oxo-1,2-dihydro-1,8-naphthyridine-3-carbonitrile] | 188 to 189 | 36.2 ± 2.14 (≈ 85.2 µM) | c | 74 ± 3.65 (≈ 174 µM) | c | 62.1 ± 3.61 (≈ 146 µM) | c | 23 ± 8.2 (≈ 54 µM) | – |
| CCOC(=O)COc1nc(-c2ccc(Cl)cc2Cl)cc(-c2ccc(F)cc2)c1C#N [Compound 8, Ethyl 2-[3-cyano-6-(2,4-dichlorophenyl)-4-(4-fluorophenyl)pyridin-2-yloxy]acetate] | 119 to 121 | 0.02 ± 0.002 (≈ 0.0449 µM) | a | 0.01 ± 0.002 (≈ 0.0225 µM) | a | 0.02 ± 0.045 (≈ 0.0449 µM) | a | > 100 | non-cytotoxic |
| N#Cc1c(-c2ccc(F)cc2)cc(-c2ccc(Cl)cc2Cl)nc1OCC(=O)NN [Compound 9, 2-[3-Cyano-6-(2,4-dichlorophenyl)-4-(4-fluorophenyl)pyridin-2-yloxy]acetohydrazide] | 197 to 199 | 2.41 ± 1.24 (≈ 5.59 µM) | a | 2.3 ± 2.86 (≈ 5.33 µM) | a | 0.46 ± 0.06 (≈ 1.07 µM) | a | 62.2 ± 2.02 (≈ 144 µM) | – |
| N#Cc1c(-c2ccc(F)cc2)cc(-c2ccc(Cl)cc2Cl)nc1OCC(=O)NN=Cc1ccc(F)cc1 [Compound 10, 2-[3-Cyano-6-(2,4-dichlorophenyl)-4-(4-fluorophenyl)pyridin-2-yloxy]-N′-(4-fluorobenzylidene)-acetohydrazide] | 219 to 221 | 30.6 ± 1.1 (≈ 56.9 µM) | b | 30.7 ± 1.64 (≈ 57.1 µM) | b | 28.2 ± 8.83 (≈ 52.4 µM) | b | 19.8 ± 2.68 (≈ 36.8 µM) | – |
| N#Cc1c(-c2ccc(F)cc2)cc(-c2ccc(Cl)cc2Cl)nc1Cl [Compound 11, 2-Chloro-6-(2,4-dichlorophenyl)-4-(4-fluorophenyl)nicotinonitrile] | 181 to 182 | – | – | – | – | – | – | – | – |
| N#Cc1c(-c2ccc(F)cc2)cc(-c2ccc(Cl)cc2Cl)nc1NCc1ccccc1 [Compound 12, 2-(Benzylamino)-6-(2,4-dichlorophenyl)-4-(4-fluorophenyl)nicotinonitrile] | 158 to 159 | – | – | – | – | – | – | – | – |
| N#Cc1c(-c2ccc(F)cc2)cc(-c2ccc(Cl)cc2Cl)nc1NCc1ccc2c(c1)OCO2 [Compound 13, 2-(Benzo[d][1,3]dioxol-5-ylmethylamino)-6-(2,4-dichlorophenyl)-4-(4-fluorophenyl)nicotinonitrile] | 149 to 151 | 16.3 ± 1.87 (≈ 33 µM) | b | 18.9 ± 1.03 (≈ 38.4 µM) | b | 23.2 ± 4.12 (≈ 47.2 µM) | b | 20.4 ± 4.99 (≈ 41.4 µM) | – |
| N#Cc1c(-c2ccc(F)cc2)cc(-c2ccc(Cl)cc2Cl)nc1NCCc1ccccc1 [Compound 14, 6-(2,4-Dichlorophenyl)-4-(4-fluorophenyl)-2-(phenylethylamino)nicotinonitrile] | 142 to 143 | – | – | – | – | – | – | – | – |
| CC1CCCCN1c1nc(-c2ccc(Cl)cc2Cl)cc(-c2ccc(F)cc2)c1C#N (stereo not drawn) [Compound 15a, 6-(2,4-Dichlorophenyl)-4-(4-fluorophenyl)-2-(2-methylpiperidin-1-yl)nicotinonitrile] | 98 to 100 | 37.1 ± 7.34 (≈ 84.2 µM) | c | 16.4 ± 2.32 (≈ 37.2 µM) | b | 38.9 ± 2.63 (≈ 88.4 µM) | c | 30.6 ± 6.21 (≈ 69.5 µM) | – |
| N#Cc1c(-c2ccc(F)cc2)cc(-c2ccc(Cl)cc2Cl)nc1N1CCOCC1 [Compound 15b, 6-(2,4-Dichlorophenyl)-4-(4-fluorophenyl)-2-morpholinonicotinonitrile] | 112 to 114 | – | – | – | – | – | – | – | – |
| N#Cc1c(-c2ccc(F)cc2)cc(-c2ccc(Cl)cc2Cl)nc1C(C#N)C#N [Compound 16, 2-[3-Cyano-6-(2,4-dichlorophenyl)-4-(4-fluorophenyl)pyridin-2-yl]malononitrile] | 99 to 101 | 0.01 ± 0.002 (≈ 0.0246 µM) | a | 0.02 ± 0.001 (≈ 0.0491 µM) | a | 0.01 ± 0.003 (≈ 0.0246 µM) | a | > 100 | non-cytotoxic |
| N#Cc1c(-c2ccc(F)cc2)cc(-c2ccc(Cl)cc2Cl)nc1NN [Compound 17, 6-(2,4-Dichlorophenyl)-4-(4-fluorophenyl)-2-hydrazinylnicotinonitrile] | 223 to 224 | 0.61 ± 0.082 (≈ 1.63 µM) | a | 0.86 ± 0.02 (≈ 2.3 µM) | a | 2.19 ± 0.83 (≈ 5.87 µM) | a | 64.1 ± 1.22 (≈ 172 µM) | – |
| CC1=NN(c2nc(-c3ccc(Cl)cc3Cl)cc(-c3ccc(F)cc3)c2C#N)C(=O)C1 [Compound 18, 6-(2,4-Dichlorophenyl)-4-(4-fluorophenyl)-2-(3-methyl-5-oxo-4,5-dihydro-1H-pyrazol-1-yl) nicotinonitrile] | 246 to 248 | 20.2 ± 2.26 (≈ 46 µM) | b | 0.01 ± 0.003 (≈ 0.0228 µM) | a | 20.2 ± 3.26 (≈ 46 µM) | b | 29.8 ± 4.88 (≈ 67.9 µM) | – |
| Cc1cc(C)n(-c2nc(-c3ccc(Cl)cc3Cl)cc(-c3ccc(F)cc3)c2C#N)n1 [Compound 19, 6-(2,4-Dichlorophenyl)-2-(3,5-dimethyl-1H-pyrazol-1-yl)-4-(4-fluorophenyl)nicotinonitrile] | 287 to 289 | 75.2 ± 13.9 (≈ 172 µM) | c | 62.3 ± 10.3 (≈ 142 µM) | c | 10.4 ± 4.19 (≈ 23.8 µM) | a | 50.2 ± 10.2 (≈ 115 µM) | – |
| N#Cc1c(-c2ccc(F)cc2)cc(-c2ccc(Cl)cc2Cl)nc1NN=Cc1ccccc1Br [Compound 21a, 2-[2-(2-Bromobenzylidene)hydrazinyl]-6-(2,4-dichlorophenyl)-4-(4-fluorophenyl)nicotinonitrile] | 226 to 228 | – | – | – | – | – | – | – | – |
| N#Cc1c(-c2ccc(F)cc2)cc(-c2ccc(Cl)cc2Cl)nc1NN=Cc1ccc([N+](=O)[O-])cc1 [Compound 21b, 6-(2,4-Dichlorophenyl)-4-(4-fluorophenyl)-2-[2-(4-nitrobenzylidene)hydrazinyl]nicotinonitrile] | 281 to 283 | – | – | – | – | – | – | – | – |
| N#Cc1c(-c2ccc(F)cc2)cc(-c2ccc(Cl)cc2Cl)nc1NN=Cc1cccc2ccccc12 [Compound 21e, 6-(2,4-Dichlorophenyl)-4-(4-fluorophenyl)-2-[2-(naphthalen-1-ylmethylene)hydrazinyl] nicotinonitrile] | 296 to 298 | – | – | – | – | – | – | – | – |
| COc1cccc2c1C(=O)c1c(O)c3c(c(O)c1C2=O)C[C@@](O)(C(=O)CO)C[C@@H]3O[C@H]1C[C@H](N)[C@H](O)[C@H](C)O1 [Doxorubicin, reference compound] | – | 0.04 ± 0.008 (≈ 0.0736 µM) | – | 0.09 ± 0.008 (≈ 0.166 µM) | – | 0.09 ± 0.007 (≈ 0.166 µM) | – | – | non-cytotoxic |
